Assay results from paper PMC11672637, “7-O-Carboxylic Acid-Substituted 3-O-Alkyl Difluoroquercetin; An Aztreonam-Potentiating Agent Against Carbapenemase-Producing Pseudomonas aeruginosa Through Simultaneous Inhibition of Metallo-β-Lactamase and Efflux Pump” (Antibiotics, 2024).

Experiments:
[1] = system: Ambler Class D β-lactamases; set-up: method as in earlier work; conditions: Table S1; cited from earlier work
[2] = system: Ambler Class C β-lactamases; set-up: method as in earlier work; conditions: Table S1; cited from earlier work
[3] = system: Ambler Class A β-lactamases; set-up: method as in earlier work; conditions: Table S1; cited from earlier work
AmpC = experiment: β-lactamase inhibition assay (nitrocefin); format: biochemical; conditions: nitrocefin substrate; read-out: BLi, IC50 AmpC
Description: (§1) Recombinant AmpC, OXA-48 (residues 23–265) and VIM-2 (residues 27–266) were prepared from Escherichia coli based on previously established protocols. KPC-2 and NDM-1 are commercially available from LifeSpan Biosciences, Inc., Seattle, WA, USA (LS-G26598) and RayBiotech, Inc., Peachtree Corners, GA, USA (230-00554), respectively. For β-lactamase inhibition assay, in a 96-well plate, 70–0.1 μM (in PBS) of the synthesized compounds (1~14) (100 μL) were mixed with diluted β-lactamase stock (2% DMSO in 200 μL). In a separate 96-well plate, a substrate of AmpC, KPC-2, OXA-48, and VIM-2 (nitrocefin) and NDM-1 (imipenem) were added into each well (final concentrations of 70 μM for nitrocefin and 100 μM for imipenem). After incubation at 37 °C for 20 min, the mixture of the synthesized compounds (1~14) and β-lactamase in one plate was added to the substrate in the other plate. Enzymatic hydrolysis of the substrate was then monitored by a Cytation 5 imaging multimode reader (BioTek Instruments Inc., Winooski, VT, USA) at 486 nm and 300 nm for nitrocefin and imipenem, respectively, for 15 min. The rates of hydrolysis in the presence of the inhibitors were determined when the reaction rate plateaued. Comparison of the enzymatic hydrolysis rates in the presence and the absence of inhibitors (100%) provided the percentage of enzyme inhibition at each concentration of the synthesized compounds. The IC50 values were obtained after non-linear regression (sigmoidal dose-responses) by GraphPad Prism 5 (GraphPad Software, Boston, MA, USA).

[4] = rat, cited from earlier work
[5] = system: NDM-1-Producing P. aeruginosa (PA-017, blaNDM); experiment: MIC / checkerboard with ATM; format: cell-based; conditions: PA-017; for MIC: Pseudomonas aeruginosa, compound alone, read-out: MIC, Cmpd
[6] = system: efflux pump activity in P. aeruginosa (PA-017, blaNDM); experiment: EtBr accumulation, inhibition of efflux pump activity; format: cell-based; conditions: EtBr fluorescence compared with positive control CCCP
Description: The NDM-producing P. aeruginosa clinical isolate (PA-017, blaNDM) (5 mL, LB medium) was grown to reach the mid-log phase. After centrifugation at 3500 rpm for 15 min, the bacterial pellet was washed twice with PBS and resuspended to OD600 = 0.3 in PBS. To each well of a flat-bottomed black 96-well plate, 182 µL of the bacterial suspension, 4 µL of glucose [final concentration = 0.4% (w/v)], 4 µL of the synthesized compounds or positive control CCCP, and 10 µL of EtBr (final concentration = 1 µg/mL) were added. The plate was incubated at 37 °C, and fluorescence emission from EtBr (λex 480 nm/λem 630 nm) was recorded every 2 min (for 60 min) using a Cytation 5 imaging multi-mode reader (BioTek Instruments, Inc., Winooski, VT, USA).

NDM-1 = biological target: T1, NDM-1 (Klebsiella pneumoniae, UniProt C7C422); experiment: β-lactamase inhibition assay (imipenem); format: biochemical; conditions: imipenem substrate; read-out: BLi, IC50 NDM-1
T1 construct: purchased RayBiotech, Inc. 230-00554
T1 sequence (C7C422 29-270, looked up, species assumed): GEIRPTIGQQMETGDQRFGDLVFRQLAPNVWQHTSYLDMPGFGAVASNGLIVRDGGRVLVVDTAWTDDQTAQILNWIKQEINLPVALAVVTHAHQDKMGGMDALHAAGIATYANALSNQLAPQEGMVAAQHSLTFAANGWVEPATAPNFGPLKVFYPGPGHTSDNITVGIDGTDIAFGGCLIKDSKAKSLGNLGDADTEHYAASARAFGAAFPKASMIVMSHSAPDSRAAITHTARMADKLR
Description: as §1

KPC-2 = biological target: T2, KPC-2 (Klebsiella pneumoniae, UniProt Q9F663); experiment: β-lactamase inhibition assay (nitrocefin); format: biochemical; conditions: nitrocefin substrate; read-out: BLi, IC50 KPC-2
T2 construct: purchased LifeSpan Biosciences, Inc. LS-G26598
T2 sequence (Q9F663 25-293, looked up, species assumed): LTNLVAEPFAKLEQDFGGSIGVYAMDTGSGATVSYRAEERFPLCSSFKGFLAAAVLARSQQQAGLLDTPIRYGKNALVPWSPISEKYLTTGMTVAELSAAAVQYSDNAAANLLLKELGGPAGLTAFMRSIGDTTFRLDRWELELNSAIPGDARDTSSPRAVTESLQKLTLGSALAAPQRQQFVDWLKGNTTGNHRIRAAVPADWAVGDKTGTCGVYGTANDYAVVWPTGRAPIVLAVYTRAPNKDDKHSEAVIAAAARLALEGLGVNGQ
Description: as §1

OXA-48 = biological target: T3, OXA-48 (Klebsiella pneumoniae, UniProt Q6XEC0); experiment: β-lactamase inhibition assay (nitrocefin); format: biochemical; conditions: nitrocefin substrate; read-out: BLi, IC50 OXA-48
T3 construct: OXA-48 (residues 23–265); made in house; host or cells: Escherichia coli
T3 sequence (Q6XEC0 23-265 limits assumed): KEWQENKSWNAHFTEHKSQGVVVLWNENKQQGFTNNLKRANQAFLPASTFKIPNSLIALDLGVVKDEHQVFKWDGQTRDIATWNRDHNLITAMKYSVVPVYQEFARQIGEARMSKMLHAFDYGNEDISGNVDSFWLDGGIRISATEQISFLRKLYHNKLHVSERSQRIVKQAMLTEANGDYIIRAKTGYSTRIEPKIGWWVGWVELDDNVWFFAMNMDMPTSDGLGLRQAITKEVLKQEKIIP
Description: as §1

VIM-2 = biological target: T4, VIM-2 (Escherichia coli, UniProt Q5U7L7); experiment: β-lactamase inhibition assay (nitrocefin); format: biochemical; conditions: nitrocefin substrate; read-out: BLi, IC50 VIM-2
T4 construct: VIM-2 (residues 27–266); made in house; host or cells: Escherichia coli
Description: as §1

| Structure (SMILES) | BLi activity (Ambler Class D) [1] | BLi activity (Ambler Class C) [2] | BLi activity (Ambler Class A) [3] | IC50 (AmpC) [µM] | F (mean oral bioavailability) [4] [%] | AUClast ([4]; oral administration) [ng·h/mL] | Cmax ([4]; oral administration) [ng/mL] | FD (fold decrease in the MIC of ATM upon combination with the compound) [5] | MIC [5] [µg/mL] | EPi (inhibition of efflux pump activity) [6] | IC50 (NDM-1) [µM] | IC50 (KPC-2) [µM] | IC50 (OXA-48) [µM] | IC50 (VIM-2) [µM] |
| --- | --- | --- | --- | --- | --- | --- | --- | --- | --- | --- | --- | --- | --- | --- |
| NC(=O)[C@@H]1CC[C@@H]2CN1C(=O)N2OS(=O)(=O)O [AVI, avibactam] | inhibits | inhibits | inhibits | – | – | – | – | – | – | – | – | – | – | – |
| CC(C)(C)CCOc1c(-c2ccc(F)c(F)c2)oc2cc(O)cc(O)c2c1=O [Compound 1] | – | – | – | 18.9 ± 1.8 | 0.27 | 20 | 10 | 2 | > 256 | ↑↑↑ ^e | – | – | – | – |
| C[N+](C)(CCNC(=O)COc1cc(O)c2c(=O)c(OCCC3CCCCC3)c(-c3ccc(F)c(F)c3)oc2c1)CC(=O)[O-] [Compound 8, 2-((2-(2-((3-(2-Cyclohexylethoxy)-2-(3,4-difluorophenyl)-5-hydroxy-4-oxo-4H-chromen-7-yl)oxy)acetamido)ethyl)dimethylammonio)acetate] | – | – | – | > 50 | – | – | – | 2 | > 256 | - ^f | > 50 | > 50 | > 100 | > 100 |
| CC(C)(C)CCOc1c(-c2ccc(F)c(F)c2)oc2cc(OCC(=O)Nc3ccccc3)cc(O)c2c1=O [Compound 9, 2-((2-(3,4-Difluorophenyl)-3-(3,3-dimethylbutoxy)-5-hydroxy-4-oxo-4H-chromen-7-yl)oxy)-N-phenylacetamide] | – | – | – | > 50 | – | – | – | 1 | > 256 | - ^f | 7.6 ± 0.3 | 26.2 ± 1.5 | 6.4 ± 0.6 | 12.6 ± 1.2 |
| CC(C)(C)CCOc1c(-c2ccc(F)c(F)c2)oc2cc(OCC(=O)N3CCCCC3)cc(O)c2c1=O [Compound 10, 2-(3,4-Difluorophenyl)-3-(3,3-dimethylbutoxy)-5-hydroxy-7-(2-oxo-2-(piperidin-1-yl)ethoxy)-4H-chromen-4-one] | – | – | – | > 50 | – | – | – | 1 | > 256 | - ^f | > 50 | > 50 | > 50 | > 100 |
| CC(C)(C)CCOc1c(-c2ccc(F)c(F)c2)oc2cc(OCC(=O)N[C@@H](CCCCN)C(=O)O)cc(O)c2c1=O.Cl [Compound 11, (S)-6-Amino-2-(2-((2-(3,4-difluorophenyl)-3-(3,3-dimethylbutoxy)-5-hydroxy-4-oxo-4H-chromen-7-yl)oxy)acetamido)hexanoic Acid Hydrochloride] | – | – | – | > 50 | – | – | – | 1 | > 256 | - ^f | > 50 | > 50 | > 100 | > 100 |
| CN1CCCC1CCOc1cc(O)c2c(=O)c(OCCC(C)(C)C)c(-c3ccc(F)c(F)c3)oc2c1 (stereo not drawn) [Compound 12, 2-(3,4-Difluorophenyl)-3-(3,3-dimethylbutoxy)-5-hydroxy-7-(2-(1-methylpyrrolidin-2-yl)ethoxy)-4H-chromen-4-one] | – | – | – | > 50 | – | – | – | 2 | > 256 | - ^f | > 50 | > 50 | > 100 | > 100 |
| CN1CCN(CCOc2cc(O)c3c(=O)c(OCCC(C)(C)C)c(-c4ccc(F)c(F)c4)oc3c2)CC1 [Compound 13, 2-(3,4-Difluorophenyl)-3-(3,3-dimethylbutoxy)-5-hydroxy-7-(2-(4-methylpiperazin-1-yl)ethoxy)-4H-chromen-4-one] | – | – | – | > 50 | – | – | – | 2 | > 256 | - ^f | > 50 | > 50 | > 100 | > 100 |
| CN1CCN(CCOc2cc(O)c3c(=O)c(OCCC4CCCC4)c(-c4ccc(F)c(F)c4)oc3c2)CC1 [Compound 14, 3-(2-Cyclopentylethoxy)-2-(3,4-difluorophenyl)-5-hydroxy-7-(2-(4-methylpiperazin-1-yl)ethoxy)-4H-chromen-4-one] | – | – | – | > 50 | – | – | – | 2 | > 256 | - ^f | > 50 | > 50 | > 100 | > 100 |
